Drawing on patent publication US10059701B2 (Merck Patent GmbH, priority 2015, dated 2018), this text covers IC50 for 23 compounds.

Usually IC50 stands for the concentration that inhibits the measured activity by half.

For experiment [1], the target named is T1, IRAK1 (Homo sapiens, UniProt P51617).
T1 construct: His-TEV-IRAK1 (194-712); His (N); TEV cleavage site (N)
The experiment can be described thus: IRAK1 enzymatic assay (ADP-Glo luminescence). In kind it is biochemical. The following applies: purified human recombinant His-TEV-IRAK1 (194-712). Put shortly: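 Recombinant human His-TEV-IRAK1 (194-712), 0.3 μg/ml, preincubated 15 min at RT with compounds (10 μM to 0.5 nM) in 50 mM Hepes pH 7.0, 10 mM MgCl2, 2 mM DTT, 0.1% BSA. ATP-started reaction run 2 hours at RT; ADP formed from ATP hydrolysis/autophosphorylation read by ADP-Glo luminescence.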
(ADP-Glo turns the ADP formed in a reaction into a luminescent signal.)

Experiment [2] addresses T2, IRAK4 (Homo sapiens, UniProt Q9NWZ3).
T2 construct: His-TEV-IRAK4 (1-460); His (N); TEV cleavage site (N)
T2 sequence (Q9NWZ3 1-460): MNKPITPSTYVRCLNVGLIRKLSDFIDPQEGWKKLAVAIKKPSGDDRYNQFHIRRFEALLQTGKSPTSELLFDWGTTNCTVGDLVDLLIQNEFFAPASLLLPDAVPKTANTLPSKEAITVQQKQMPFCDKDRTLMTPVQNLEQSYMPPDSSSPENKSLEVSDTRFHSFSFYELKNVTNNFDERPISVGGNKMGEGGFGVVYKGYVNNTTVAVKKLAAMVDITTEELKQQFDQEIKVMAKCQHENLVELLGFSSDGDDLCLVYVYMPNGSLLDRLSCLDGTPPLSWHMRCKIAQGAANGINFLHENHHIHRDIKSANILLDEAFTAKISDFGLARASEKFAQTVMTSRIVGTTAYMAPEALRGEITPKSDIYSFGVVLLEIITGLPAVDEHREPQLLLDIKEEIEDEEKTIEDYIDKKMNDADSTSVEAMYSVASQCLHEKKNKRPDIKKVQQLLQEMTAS
The experiment can be described thus: IRAK4 enzymatic assay (ADP-Glo luminescence). The class given is biochemical. The following applies: purified human recombinant His-TEV-IRAK4 (1-460), ATP 2 μM. Put shortly:
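Recombinant His-TEV-IRAK4 (1-460) at 0.3 μg/ml preincubated 15 min at RT with compounds (10 μM to 0.5 nM) in Hepes pH 7.0 buffer with MgCl2/MnCl2. Reaction started with 2 μM ATP and 300 nM STK1-biotin peptide, run 2 h at RT. ADP formed read by ADP-Glo luminescence.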

T1 sequence (P51617 194-712): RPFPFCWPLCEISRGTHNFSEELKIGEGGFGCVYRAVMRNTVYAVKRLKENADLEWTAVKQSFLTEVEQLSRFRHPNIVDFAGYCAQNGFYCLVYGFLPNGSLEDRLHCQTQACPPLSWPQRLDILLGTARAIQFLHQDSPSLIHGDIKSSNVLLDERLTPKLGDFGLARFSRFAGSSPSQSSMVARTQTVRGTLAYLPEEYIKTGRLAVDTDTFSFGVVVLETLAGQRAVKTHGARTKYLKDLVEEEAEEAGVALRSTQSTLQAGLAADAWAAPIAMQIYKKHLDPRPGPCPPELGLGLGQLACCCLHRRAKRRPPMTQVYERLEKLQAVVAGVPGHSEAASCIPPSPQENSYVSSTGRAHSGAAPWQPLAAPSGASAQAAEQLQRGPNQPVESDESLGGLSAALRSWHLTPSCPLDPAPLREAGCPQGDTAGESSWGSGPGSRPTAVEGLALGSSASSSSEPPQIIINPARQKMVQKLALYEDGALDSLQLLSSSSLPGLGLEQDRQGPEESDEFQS

In the case of `O=C(O)CCn1/c(=N/C(=O)c2cccc(C(F)(F)F)c2)[nH]c2cc(N3CCOCC3=O)ccc21` [Compound 166, (E)-3-(5-(3-oxomorpholino)-2-((3-(trifluoromethyl)benzoyl)imino)-2,3-dihydro-1H-benzo[d]imidazol-1-yl)propanoic acid], the IC50 was > 1000 nM in experiment [1] and ≤ 100 nM in experiment [2].

As for `O=C(/N=c1\[nH]c2cc(N3CCOCCC3=O)ccc2n1CCCO)c1cccc(C(F)(F)F)c1` [Compound 192, (E)-N-(1-(3-hydroxypropyl)-5-(5-oxo-1,4-oxazepan-4-yl)-1H-benzo[d]imidazol-2(3H)-ylidene)-3-(trifluoromethyl)benzamide], the concentration for half-maximal inhibition (IC50) was 100 to 1000 nM in experiment [1] and ≤ 100 nM in experiment [2].

As for `O=C(/N=c1\[nH]c2cc(N3CCCOC3=O)ccc2n1CC1CCOCC1)c1cccc(C(F)(F)F)c1` [Compound 155, (E)-N-(5-(2-oxo-1,3-oxazinan-3-yl)-1-((tetrahydro-2H-pyran-4-yl)methyl)-1H-benzo[d]imidazol-2(3H)-ylidene)-3-(trifluoromethyl)benzamide], the IC50 in experiment [1] is 100 to 1000 nM; in experiment [2], ≤ 100 nM.

On to `CC(C)(F)Cn1/c(=N/C(=O)c2cccc(C(F)(F)F)c2)[nH]c2cc(N3CCCOC3=O)ccc21` [Compound 178, (E)-N-(1-(2-fluoro-2-methylpropyl)-5-(2-oxo-1,3-oxazinan-3-yl)-1H-benzo[d]imidazol-2(3H)-ylidene)-3-(trifluoromethyl)benzamide], for which the values for the IC50 in experiment [1] and in experiment [2] were 100 to 1000 nM and ≤ 100 nM, respectively.

With `CS(=O)(=O)N1CCC(n2/c(=N/C(=O)c3cccc(C(F)(F)F)c3)[nH]c3cc(N4CCOCC4=O)ccc32)CC1` [Compound 132, (E)-N-(1-(1-(methylsulfonyl)piperidin-4-yl)-5-(3-oxomorpholino)-1H-benzo[d]imidazole-2(3H)-ylidene)-3-(trifluoromethyl)benzamide], the IC50 was 100 to 1000 nM in experiment [1] and ≤ 100 nM in experiment [2].

Take `O=C(/N=c1\[nH]c2cc(N3CCOCC3=O)ccc2n1CCCO)c1cccc(C(F)(F)F)n1` [Compound 84, (E)-N-(1-(3-hydroxypropyl)-5-(3-oxomorpholino)-1H-benzo[d]imidazol-2(3H)-ylidene)-6-(trifluoromethyl)picolinamide]: the IC50 is > 1000 nM in experiment [1] and 100 to 1000 nM in experiment [2].

`C[C@H](CCO)n1/c(=N/C(=O)c2cccc(C#N)c2)[nH]c2cc(N3CCCOC3=O)ccc21` [Compound 42, (R,E)-3-cyano-N-(1-(4-hydroxybutan-2-yl)-5-(2-oxo-1,3-oxazinan-3-yl)-1H-benzo[d]imidazol-2(3H)-ylidene)benzamide]: the IC50 in experiment [1] was 100 to 1000 nM; in experiment [2], ≤ 100 nM.

As for `CC1(C)C(=O)N(c2ccc3c(c2)[nH]/c(=N\C(=O)c2cccc(C(F)F)c2)n3CCCO)CCN1CCO` [Example 195, (E)-3-(difluoromethyl)-N-(5-(4-(2-hydroxyethyl)-3,3-dimethyl-2-oxopiperazin-1-yl)-1-(3-hydroxypropyl)-1H-benzo[d]imidazol-2(3H)-ylidene)benzamide], the IC50 was 100 to 1000 nM in experiment [1] and ≤ 100 nM in experiment [2].

For the compound `O=C(/N=c1\[nH]c2cc(N3CCOCC3=O)c(OC(F)F)cc2n1CCCO)c1cccc(C(F)(F)F)c1` [Example 211, (E)-N-(6-(difluoromethoxy)-1-(3-hydroxypropyl)-5-(3-oxomorpholino)-1H-benzo[d]imidazol-2(3H)-ylidene)-3-(trifluoromethyl)benzamide], the IC50 in experiment [1] and in experiment [2] was ≤ 100 nM in each case.

Take `O=C(/N=c1\[nH]c2cc(N3CCOCC3=O)ccc2n1CCCO)c1cccnc1` [Compound 77, (E)-N-(1-(3-hydroxypropyl)-5-(3-oxomorpholino)-1H-benzo[d]imidazol-2(3H)-ylidene)nicotinamide]: the IC50 in experiment [1] is 100 to 1000 nM; in experiment [2], ≤ 100 nM.

Consider `N#Cc1cccc(C(=O)/N=c2\[nH]c3cc(N4CCOCC4=O)ccc3n2CC2(CO)CC2)c1` [Compound 12, (E)-3-cyano-N-(1-((1-(hydroxymethyl)cyclopropyl)methyl)-5-(3-oxomorpholino)-1H-benzo[d]imidazol-2(3H)-ylidene)benzamide], for which the IC50 in experiment [1] and in experiment [2] was ≤ 100 nM in each case.

Consider `COc1cc2c(cc1N1CCOCC1=O)[nH]/c(=N\C(=O)c1cccc(C(F)(F)F)c1)n2CCCO` [Compound 76, (E)-N-(1-(3-hydroxypropyl)-6-methoxy-5-(3-oxomorpholino)-1H-benzo[d]imidazol-2(3H)-ylidene)-3-(trifluoromethyl)benzamide], for which the IC50 in experiment [1] and in experiment [2] was ≤ 100 nM throughout.

`CCNC(=O)N1CCC(n2/c(=N/C(=O)c3cccc(C(F)F)c3)[nH]c3cc(N4CCOCC4=O)ccc32)CC1` [Compound 135, (E)-4-(2-((3-(difluoromethyl)benzoyl)imino)-5-(3-oxomorpholino)-2,3-dihydro-1H-benzo[d]imidazol-1-yl)-N-ethylpiperidine-1-carboxamide]: the IC50 in experiment [1] and in experiment [2] was ≤ 100 nM throughout.

As to `O=C(/N=c1\[nH]c2cc(N3CCN(C4CC4)CC3=O)ccc2n1CCCO)c1cccc(C(F)(F)F)c1` [Compound 183, (E)-N-(5-(4-cyclopropyl-2-oxopiperazin-1-yl)-1-(3-hydroxypropyl)-1H-benzo[d]imidazol-2(3H)-ylidene)-3-(trifluoromethyl)benzamide], the IC50 in experiment [1] and in experiment [2] was ≤ 100 nM in each case.

Regarding `Cn1nc(C(=O)/N=c2\[nH]c3cc(N4CCOCC4=O)ccc3n2CCCO)c2ccccc21` [Compound 60, (E)-N-(1-(3-hydroxypropyl)-5-(3-oxomorpholino)-1H-benzo[d]imidazol-2(3H)-ylidene)-1-methyl-1H-indazole-3-carboxamide], the half-inhibitory concentration (IC50) in experiment [1] and in experiment [2] was > 1000 nM throughout.

As to `O=C(/N=c1\[nH]c2cc(N3CCCOC3=O)ccc2n1CC1CCCCO1)c1cccc(C(F)F)c1` (stereo not shown) [Compound 160, (E)-3-(difluoromethyl)-N-(5-(2-oxo-1,3-oxazinan-3-yl)-1-((tetrahydro-2H-pyran-2-yl)methyl)-1H-benzo[d]imidazol-2(3H)-ylidene)benzamide], the results for the IC50 in experiment [1] and in experiment [2] were 100 to 1000 nM and ≤ 100 nM, respectively.

Take `O=C(/N=c1\[nH]c2cc(N3CCOCC3=O)ccc2n1CCCCO)c1cccc(C(F)F)c1` [Compound 26, (E)-3-(difluoromethyl)-N-(1-(4-hydroxybutyl)-5-(3-oxomorpholino)-1H-benzo[d]imidazol-2(3H)-ylidene)benzamide]: the IC50 in experiment [1] and in experiment [2] was ≤ 100 nM each time.

For the compound `O=C(/N=c1\[nH]c2cc(N3CCOCC3=O)ccc2n1CCCO)c1cccc(S(=O)(=O)C(F)(F)F)c1` [Compound 152, (E)-N-(1-(3-hydroxypropyl)-5-(3-oxomorpholino)-1H-benzo[d]imidazol-2(3H)-ylidene)-3-((trifluoromethyl)sulfonyl)benzamide], the 50% inhibitory concentration (IC50) in experiment [1] and in experiment [2] was ≤ 100 nM throughout.

`O=C(/N=c1\[nH]c2cc(N3CCOCC3=O)ccc2n1CCCO)c1cccc(C(F)F)c1` [Compound 79, (E)-3-(difluoromethyl)-N-(1-(3-hydroxypropyl)-5-(3-oxomorpholino)-1H-benzo[d]imidazol-2(3H)-ylidene)benzamide]: the IC50 in experiment [1] and in experiment [2] was ≤ 100 nM in each case.

Take `O=C(/N=c1\[nH]c2cc(N3CC4CCC(O4)C3=O)ccc2n1CCCO)c1cccc(C(F)(F)F)c1` (stereo not shown) [Example 217, (E)-N-(1-(3-hydroxypropyl)-5-(2-oxo-8-oxa-3-azabicyclo[3.2.1]octan-3-yl)-1H-benzo[d]imidazol-2(3H)-ylidene)-3-(trifluoromethyl)benzamide]: the values for the half-maximal inhibitory concentration (IC50) in experiment [1] and in experiment [2] were 100 to 1000 nM and ≤ 100 nM, respectively.

On to `O=C(/N=c1\[nH]c2cc(N3CC4CCC(C3=O)N4C3CC3)ccc2n1CCCO)c1cccc(C(F)F)c1` (stereo not shown) [Example 214, (E)-N-(5-(8-cyclopropyl-2-oxo-3,8-diazabicyclo[3.2.1]octan-3-yl)-1-(3-hydroxypropyl)-1H-benzo[d]imidazol-2(3H)-ylidene)-3-(difluoromethyl)benzamide], for which the concentration for half-maximal inhibition (IC50) is 100 to 1000 nM in experiment [1] and ≤ 100 nM in experiment [2].

Turning to `O=C(/N=c1\[nH]c2cc(N3CCCOC3=O)ccc2n1CC1COC1)c1cccc(C(F)(F)F)c1` [Compound 158, (E)-N-(1-(oxetan-3-ylmethyl)-5-(2-oxo-1,3-oxazinan-3-yl)-1H-benzo[d]imidazol-2(3H)-ylidene)-3-(trifluoromethyl)benzamide], the IC50 is 100 to 1000 nM in experiment [1] and ≤ 100 nM in experiment [2].

Take `O=C(/N=c1\[nH]c2cc(N3CCOCC3=O)ccc2n1[C@H]1CC[C@@H](O)CC1)c1cccc(C(F)(F)F)c1` [Compound 57, cis-(E)-N-(1-(4-hydroxycyclohexyl)-5-(3-oxomorpholino)-1H-benzo[d]imidazol-2(3H)-ylidene)-3-(trifluoromethyl)benzamide]: the IC50 in experiment [1] and in experiment [2] was ≤ 100 nM throughout.
